Reference: patent publication US10399971B2, “Compound for treating or preventing hyperuricemia or gout” (JIANGSU ATOM BIOSCIENCE AND PHARMACEUTICAL CO., LTD., priority 2015, dated 2019)

Assays:
hyperuricemia mice = assay: Uric acid excretion test in hyperuricemia mice; assay type: in vivo, Kunming mice; settings: 15 mg/kg oral
Method: Species: Kingming mice (Clean Level); body weights: 25 to 30 g; ages: 4 to 5 weeks; sex: male. These mice were purchased from Shanghai SLAC Laboratory Animal Co., Ltd. Certificate No.: SCXK (HU) 2012-2002. Animal quality certificate number: 2015000522173.
A certain amount of adenine and yeast extract powder was weighted and a certain amount of double distilled water was added. The mixture was stirred at about 60° C. for 40 min to give a suspension, which the concentration of yeast extract is 0.6 g/mL and the concentration of adenine is 12 mg/mL.
A suspension of 20 mg/mL potassium oxonate was prepared by mixing a certain amount of potassium oxonate with 0.5% CMC-Na solution before use.
Male Kunming mice were randomly divided into four groups: blank control group, model group, compound 74 group, and benzbromarone group. Each group has six mice. All mice fasted 2 to 3 h before use. The model group, benzbromarone group, and compound 74 group were orally given a suspension of yeast extract and adenine prepared above to reach the final dosage of 10 g/kg (body weight) of yeast extract and 200 mg/kg (body weight) of adenine, respectively. The blank control group was only given same volume of normal saline orally. After 2.5 h, all mice in compound 74 group and benzbromarone group were given 10 mL/kg of suspension of compound 74 (1.5 mg/mL) and 10 mL/kg of suspension of benzbromarone (1.5 mg/mL), respectively. The blank control group and model group were orally given same volume of 0.5% CMC-Na solution. All animals were treated in the same way for seven days by using administration methods described above. On the last day, after administration of a suspension of yeast extract and adenine for the model group, compound 74 group, and benzbromarone group, all mice in these three groups were given 12.5 mL/kg of potassium oxonate (20 mg/mL) by i.p. The blank control was only given same volume of 0.5% CMC-Na solution by i.p. After 30 min, compound 74 and benzbromarone were administrated orally to the mice at same dosages as above in compound 74 group and benzbromarone group, respectively. The blank control group and model group were orally given same volume of 0.5% CMC-Na solution.
Collection of urine samples: All mice were placed in metabolic cages with normal diet individually after giving test compounds on the last day. 24 h urine was collected and the urine volume was measured. The urine was centrifugated at 3000 rpm for 20 min and the supernatant was collected.
Detection of the concentration of uric acid of mice urine samples: uric acid concentration in samples was detected by using uric acid assay kit (phosphotungstic acid method) followed the procedures described in the instruction.

in vivo = settings: both, SD, rat, po
Text: (§1) Rats were randomly divided into group A1, group B1 and blank control group. Each group has 10 of rats with half male and half female.

[1] = Acute toxicity of single oral dose in SD rats; settings: for Weight gain rate (%): 14 day compared with 0 day
Text: as §1

[2] = female SD rats (n=5), 74 at 5.0 g/kg, BBR at 0.14 g/kg
[3] = male SD rats (n=5), 74 at 5.0 g/kg, BBR at 0.14 g/kg

For CCc1nc2ccccn2c1C(=O)c1cc(Br)c(O)c(C#N)c1 [Compound 74, 3-bromo-5-(2-ethylimidazo[1,2-a]pyridine-3-carbonyl)-2-hydroxybenzonitrile hydrogen chloride], the “uric acid excretion increased compared with the model group” value (hyperuricemia mice; increase over model group) was “about 46.77%”, the “Changes of uric acid excretion (compared with model group, %)” value (hyperuricemia mice; model group set to 100%) was 146.77% and the “Uric acid in urine for 24 h, ±SD” value (hyperuricemia mice; seven days, 6 mice) was 15.69 ± 1.53 mmol. The MTD at 14 days (in vivo) was 5000 mg/kg, the Death rate ([1]; SD rats, single oral dose, 74 at 5.0 g/kg, BBR at 0.14 g/kg, 10 rats per group, 14 days observation) was 0/10 and the “Weight 0 day (X ± SD)” value [1, 2] was 135.94 ± 5.62 g. The “Weight 7 day (X ± SD)” value [1, 2] was 183.02 ± 11.10 g, the “Weight gain rate (%)” value ([1]; female SD rats (n=5)) was “+53.0%” and the “Weight 14 day (X ± SD)” value [1, 2] was 208.04 ± 11.90 g. The “Weight 0 day (X ± SD)” value [1, 3] was 149.06 ± 5.95 g, the “Weight 7 day (X ± SD)” value [1, 3] was 204.04 ± 21.69 g and the “Weight gain rate (%)” value ([1]; male SD rats (n=5)) was “+73.2%”. The “Weight 14 day (X ± SD)” value [1, 3] was 258.12 ± 17.65 g and the “death of rats in pre-experiment of acute toxicity” value ([1]; pre-experiment, compound 74 at 5 g/kg (highest dose), benzbromarone at 0.14 g/kg) was “did not cause death”.
